In paper PMC10303791 (BMC Biology, 2023):

How the values were obtained:
Assay in all cases: two-electrode voltage clamp, oocytes, concentration-response
Assay type in all cases: cell-based
[1] = molecular target: T1, Xenopus tropicalis α4β2 nAChR, α4β2(FS) (Xenopus tropicalis, UniProt A0A8J0QAC2+A4IIS6)
T1 construct: gene chrna4; full-length single subunits in pCMV-SPORT6 (Dharmacon), cRNA co-injected in Xenopus laevis oocytes; stoichiometry unknown
Text: (§1) two-electrode voltage clamp, oocytes, concentration-response on Xenopus tropicalis α4β2 nAChR, α4β2(FS)

[2] = molecular target: T2, Xenopus tropicalis α4β2 nAChR, α4β2(FS) (Xenopus tropicalis, UniProt A0A8J0QAC2+A4IIS6, A4IIS6:F131L/A4IIS6:S133C)
T2 construct: gene chrna4; full-length single subunits in pCMV-SPORT6 (Dharmacon), cRNA co-injected in Xenopus laevis oocytes; stoichiometry unknown
Text: as §1

[3] = molecular target: T3, Xenopus tropicalis α4β2 nAChR, α4β2(FS) (Xenopus tropicalis, UniProt A0A8J0QAC2+A4IIS6, A4IIS6:S133C)
T3 construct: gene chrna4; full-length single subunits in pCMV-SPORT6 (Dharmacon), cRNA co-injected in Xenopus laevis oocytes; stoichiometry unknown
Text: as §1

[4] = test system: T4, Nanorana parkeri α4β2 nAChR, α4β2(FS); conditions: agonist; α4:β2 cRNA ratio 1:3; -70 mV; Ba-ND96 with 1 µM atropine; room temperature; high-sensitivity site of biphasic fit, 95% CI
T4 construct: full-length single subunits, codon-optimized synthetic DNA in pGEMHE, cRNA co-injected in Xenopus laevis oocytes; behaves as 3α:2β (conjecture)
Text: two-electrode voltage clamp, oocytes, concentration-response on Nanorana parkeri α4β2 nAChR, α4β2(FS)

CC(=O)OCC[N+](C)(C)C [acetylcholine]
EC50 [1]: 0.047 µM | EC50 [2]: 0.021 µM | EC50 [3]: 0.018 µM | EC50 [4]: 0.29 µM
